# Reference: DBAASP
# Where “and” joins values, the source holds several entries; their conditions need not be identical. Equal entries are not always repeated.
# Legend:
# Test in all cases: ≥ marks a high value that may be exact or a test limit, other limits are often not marked, values filed in µg/mL are converted to µM
# Aspergillus fumigatus = system: Aspergillus fumigatus
# Bibersteinia trehalosi = system: Bibersteinia trehalosi
# [1] = system: Corynebacterium pseudotuberculosis ATCC 19410
# Klebsiella pneumoniae = system: Klebsiella pneumoniae
# [2] = system: Mannheimia haemolytica Serovar 1
# [3] = system: Mannheimia haemolytica Serovar 2
# [4] = system: Mannheimia haemolytica Serovar 6
# Pasteurella multocida = system: Pasteurella multocida
# [5] = system: Pseudomonas aeruginosa PAO1
# [6] = system: Salmonella enterica subsp. arizonae
# Staphylococcus aureus = system: Staphylococcus aureus
# Candida albicans 105 = system: Candida albicans 105
# Candida albicans 3153A = system: Candida albicans 3153A
# [7] = system: Enterococcus faecalis ATCC 29212
# Escherichia coli DC2 = system: Escherichia coli DC2
# Escherichia coli O111 = system: Escherichia coli O111
# Escherichia coli O157:H7 = system: Escherichia coli O157:H7
# Escherichia coli UB1005 = system: Escherichia coli UB1005
# [8] = system: Pseudomonas aeruginosa Z61
# [9] = system: Salmonella enterica serovar Typhimurium MS4252S
# [10] = system: Salmonella enterica subsp. enterica serovar Typhimurium ATCC 14028s
# [11] = system: Staphylococcus aureus 1056
# [12] = system: Staphylococcus aureus NCTC 4163
# [13] = system: Staphylococcus aureus R147
# [14] = system: Staphylococcus epidermidis
structure (smiles),measurement,setting,value
CC[C@H](C)[C@H](NC(=O)[C@H](Cc1cnc[nH]1)NC(=O)[C@@H](NC(=O)[C@@H](NC(=O)[C@H](CCCCN)NC(=O)[C@H](CCCN=C(N)N)NC(=O)[C@@H](NC(=O)[C@@H](NC(=O)[C@H](CCCN=C(N)N)NC(=O)[C@H](CCCN=C(N)N)NC(=O)[C@@H](N)CC(C)C)[C@@H](C)CC)[C@@H](C)CC)[C@@H](C)CC)[C@@H](C)CC)C(=O)N[C@H](C(=O)N[C@@H](CCCCN)C(N)=O)[C@@H](C)CC [LRRIIRKIIHIIK],MIC,Aspergillus fumigatus,4.96 µM
same,MIC,Bibersteinia trehalosi,2.99 µM
same,MIC,[1],12 µM
same,MIC,Klebsiella pneumoniae,4.01 µM
same,MIC,[2],1.97 µM
same,MIC,[3],1.02 µM
same,MIC,[4],2.51 µM
same,MIC,Pasteurella multocida,2.99 µM
same,MIC,[5],1.02 µM
same,MIC,[6],12 µM
same,MIC,Staphylococcus aureus,5.98 µM
CC[C@H](C)[C@H](NC(=O)[C@@H]1CCCN1C(=O)[C@@H]1CCCN1C(=O)[C@H](CCCN=C(N)N)NC(=O)[C@H](Cc1ccccc1)NC(=O)[C@@H](N)CCCN=C(N)N)C(=O)N[C@@H](CCCN=C(N)N)C(=O)N[C@@H](CCCN=C(N)N)C(=O)N1CCC[C@H]1C(=O)N1CCC[C@H]1C(=O)N[C@H](C(=O)N[C@@H](CCCN=C(N)N)C(=O)N1CCC[C@H]1C(=O)N1CCC[C@H]1C(=O)N[C@@H](Cc1ccccc1)C(=O)N[C@@H](CCCN=C(N)N)C(=O)N1CCC[C@H]1C(=O)N1CCC[C@H]1C(=O)N[C@@H](Cc1ccccc1)C(=O)N[C@@H](CCCN=C(N)N)C(=O)N1CCC[C@H]1C(=O)N1CCC[C@H]1C(=O)N[C@H](C(=O)N[C@@H](CCCN=C(N)N)C(N)=O)C(C)C)[C@@H](C)CC [RFRPPIRRPPIRPPFRPPFRPPVR],MIC,Candida albicans 105,10.6 µM
same,MIC,Candida albicans 3153A,5.32 µM
same,MIC,[7],10.6 µM
same,MIC,Escherichia coli DC2,0.0416 µM
same,MIC,Escherichia coli O111,0.665 µM
same,MIC,Escherichia coli O157:H7,2.66 µM and 5.42 µM
same,MIC,Escherichia coli UB1005,0.0416 µM
same,MIC,[5],1.33 µM
same,MIC,[8],2.66 µM
same,MIC,[9],0.0416 µM
same,MIC,[10],0.166 µM
same,MIC,[11],5.32 µM and 8.65 µM
same,MIC,[12],10.6 µM
same,MIC,[13],21.3 µM
same,MIC,[14],5.32 µM
